Data on 6 compounds can be found in ChEMBL document CHEMBL4376804, “Review of Transient Receptor Potential Canonical (TRPC5) Channel Modulators and Diseases” (J Med Chem, 2019).

Holding throughout (assay type): cell-based
Test [1] concerns the target T1, Short transient receptor potential channel 5 (Mus musculus, UniProt Q9QX29).
T1 sequence (Q9QX29 whole entry): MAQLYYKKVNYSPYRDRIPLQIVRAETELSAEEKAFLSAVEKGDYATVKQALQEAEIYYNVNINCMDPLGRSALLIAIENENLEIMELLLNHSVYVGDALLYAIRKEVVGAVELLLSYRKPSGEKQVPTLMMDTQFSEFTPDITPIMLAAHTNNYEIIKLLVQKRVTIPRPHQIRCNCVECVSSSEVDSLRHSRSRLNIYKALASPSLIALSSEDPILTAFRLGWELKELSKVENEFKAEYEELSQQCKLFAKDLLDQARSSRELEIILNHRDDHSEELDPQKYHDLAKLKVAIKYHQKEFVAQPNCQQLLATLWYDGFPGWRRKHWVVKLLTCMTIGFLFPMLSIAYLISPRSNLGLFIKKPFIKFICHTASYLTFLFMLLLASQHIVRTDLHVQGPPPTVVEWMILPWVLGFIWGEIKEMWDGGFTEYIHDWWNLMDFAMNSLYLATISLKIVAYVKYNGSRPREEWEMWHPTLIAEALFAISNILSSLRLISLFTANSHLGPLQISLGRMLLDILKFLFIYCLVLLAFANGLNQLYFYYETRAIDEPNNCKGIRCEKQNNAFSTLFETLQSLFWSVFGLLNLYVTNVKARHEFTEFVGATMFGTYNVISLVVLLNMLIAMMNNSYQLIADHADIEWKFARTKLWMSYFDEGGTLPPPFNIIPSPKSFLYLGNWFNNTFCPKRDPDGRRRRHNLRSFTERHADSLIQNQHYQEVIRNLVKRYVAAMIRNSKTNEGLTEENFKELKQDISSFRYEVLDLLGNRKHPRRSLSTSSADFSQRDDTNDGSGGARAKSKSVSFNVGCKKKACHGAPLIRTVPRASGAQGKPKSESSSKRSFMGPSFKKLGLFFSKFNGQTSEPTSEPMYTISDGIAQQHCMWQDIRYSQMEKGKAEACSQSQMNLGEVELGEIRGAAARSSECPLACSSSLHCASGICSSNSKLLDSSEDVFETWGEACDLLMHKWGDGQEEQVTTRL
The experiment in a line: Inhibition of mouse TRPC5 expressed in HEK293 cells co-expressing mu-opioid receptor assessed as reduction in DAMGO-induced membrane potential by FMP-2 dye based assay.

Test [2] deals with T2, Short transient receptor potential channel 3 (Homo sapiens, UniProt Q13507).
T2 sequence (Q13507 whole entry): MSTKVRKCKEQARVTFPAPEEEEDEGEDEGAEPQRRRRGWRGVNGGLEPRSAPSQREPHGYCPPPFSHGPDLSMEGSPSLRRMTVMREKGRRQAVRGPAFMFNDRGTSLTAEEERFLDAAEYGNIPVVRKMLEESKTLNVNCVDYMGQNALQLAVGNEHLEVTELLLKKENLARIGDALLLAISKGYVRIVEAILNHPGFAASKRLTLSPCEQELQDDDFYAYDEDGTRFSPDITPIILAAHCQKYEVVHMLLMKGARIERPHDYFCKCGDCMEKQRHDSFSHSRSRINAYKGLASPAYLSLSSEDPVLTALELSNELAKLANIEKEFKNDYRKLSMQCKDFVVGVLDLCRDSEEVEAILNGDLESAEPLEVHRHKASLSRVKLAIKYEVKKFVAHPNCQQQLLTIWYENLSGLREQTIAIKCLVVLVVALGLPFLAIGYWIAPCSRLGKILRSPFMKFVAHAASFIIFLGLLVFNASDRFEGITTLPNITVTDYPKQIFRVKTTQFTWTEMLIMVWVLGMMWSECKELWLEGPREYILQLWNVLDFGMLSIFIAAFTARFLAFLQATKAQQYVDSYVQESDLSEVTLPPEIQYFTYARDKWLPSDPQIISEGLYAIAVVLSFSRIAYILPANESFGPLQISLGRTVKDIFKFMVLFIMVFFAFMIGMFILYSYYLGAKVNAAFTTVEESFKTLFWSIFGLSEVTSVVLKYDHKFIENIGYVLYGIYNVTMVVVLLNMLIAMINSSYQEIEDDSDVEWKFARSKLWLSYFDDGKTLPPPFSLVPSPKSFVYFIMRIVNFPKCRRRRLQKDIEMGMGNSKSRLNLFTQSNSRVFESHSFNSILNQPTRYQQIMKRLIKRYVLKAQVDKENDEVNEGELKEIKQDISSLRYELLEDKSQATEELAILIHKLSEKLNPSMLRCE
Nature of the test: Inhibition of human TRPC3 expressed in HEK293 cells assessed as reduction in carbachol-induced membrane potential by FMP-2 dye based assay.

The target in test [3] is T3, Short transient receptor potential channel 6 (Mus musculus, UniProt Q61143).
T3 sequence (Q61143 whole entry): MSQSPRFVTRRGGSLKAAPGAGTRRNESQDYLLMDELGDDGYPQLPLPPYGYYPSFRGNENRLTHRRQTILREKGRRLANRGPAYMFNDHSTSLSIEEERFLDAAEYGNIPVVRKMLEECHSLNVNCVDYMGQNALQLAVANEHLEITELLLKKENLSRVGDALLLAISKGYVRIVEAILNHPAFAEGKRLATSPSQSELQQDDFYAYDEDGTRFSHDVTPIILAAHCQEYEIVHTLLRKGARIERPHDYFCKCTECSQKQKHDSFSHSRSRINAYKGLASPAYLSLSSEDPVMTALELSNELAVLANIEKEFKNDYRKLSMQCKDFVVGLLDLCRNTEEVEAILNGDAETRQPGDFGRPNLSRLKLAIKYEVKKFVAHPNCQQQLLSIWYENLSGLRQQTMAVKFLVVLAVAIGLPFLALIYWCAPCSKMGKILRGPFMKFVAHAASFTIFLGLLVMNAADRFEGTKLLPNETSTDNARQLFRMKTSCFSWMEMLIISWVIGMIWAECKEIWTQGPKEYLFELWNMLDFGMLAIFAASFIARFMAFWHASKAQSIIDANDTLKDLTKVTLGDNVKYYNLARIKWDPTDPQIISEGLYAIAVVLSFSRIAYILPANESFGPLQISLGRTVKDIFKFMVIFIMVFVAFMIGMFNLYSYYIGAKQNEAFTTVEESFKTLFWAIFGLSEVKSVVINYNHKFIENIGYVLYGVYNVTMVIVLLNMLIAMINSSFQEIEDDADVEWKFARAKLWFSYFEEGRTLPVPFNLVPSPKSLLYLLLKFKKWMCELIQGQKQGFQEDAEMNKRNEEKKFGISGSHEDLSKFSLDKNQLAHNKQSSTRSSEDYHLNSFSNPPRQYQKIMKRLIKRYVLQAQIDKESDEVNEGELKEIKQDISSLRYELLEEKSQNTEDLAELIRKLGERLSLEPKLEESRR
The experiment in a line: Inhibition of mouse TRPC6 expressed in HEK293 cells co-expressing M5 receptor assessed as reduction in carbachol-induced membrane potential by FMP-2 dye based assay.

Some results are limits rather than exact numbers.

Broadly, the IC50 is the concentration that inhibits the measured activity by half.

As to `c1ccc2[nH]c(NC34CC5CC(CC(C5)C3)C4)nc2c1`, the half-inhibitory concentration (IC50) was 12.4 µM in test [1], > 100 µM in test [2] and > 100 µM in test [3].

As to `CC1CCN(c2nc3ccccc3[nH]2)CC1`, the IC50 in test [1] was 6.6 µM; in test [2], 19.3 µM; in test [3], 63.8 µM.

With `c1ccc2[nH]c(N3CCCC3)nc2c1`, the IC50 in test [1] was 8 µM; in test [2], > 100 µM; in test [3], > 100 µM.

Turning to `CC1CCCCN1c1nc2ccccc2[nH]1` (stereo not drawn), the IC50 in test [1] is 3.5 µM; in test [2] it was > 100 µM; in test [3], > 100 µM.

For `c1ccc2[nH]c(N3CCCCC3)nc2c1`, the IC50 in test [1] is 11.1 µM; in test [2], > 100 µM; in test [3], > 100 µM.

As to `CC1CCN(c2nc3cc(Cl)ccc3[nH]2)CC1`, the IC50 in test [1] worked out at 3.1 µM; in test [2], 30.4 µM; in test [3], 57.1 µM.
